Laboratory results taken from publication PMC4468002 (Bioorganic & medicinal chemistry, 2015).

Key:
[1] = biological target: human D3R (Homo sapiens, UniProt P35462); assay: Radioligand competition binding, [3H]N-methylspiperone, D3R; settings: ratio of Ki values; Table 2
[2] = Phase I metabolic stability in mouse liver microsomes with NADPH; assay type: in vitro ADME; settings: 60 min incubation, 1 μM compound

Chain of human D3R (P35462 whole entry): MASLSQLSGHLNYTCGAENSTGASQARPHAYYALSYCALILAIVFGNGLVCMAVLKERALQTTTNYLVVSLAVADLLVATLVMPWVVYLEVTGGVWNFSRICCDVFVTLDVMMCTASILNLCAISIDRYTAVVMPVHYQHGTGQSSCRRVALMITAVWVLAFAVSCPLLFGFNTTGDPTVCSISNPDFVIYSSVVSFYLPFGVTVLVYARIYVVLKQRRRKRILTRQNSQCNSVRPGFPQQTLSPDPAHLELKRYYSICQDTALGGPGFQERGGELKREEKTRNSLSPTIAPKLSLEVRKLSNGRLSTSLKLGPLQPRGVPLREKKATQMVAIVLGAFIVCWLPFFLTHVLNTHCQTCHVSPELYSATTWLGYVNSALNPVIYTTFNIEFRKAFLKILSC

Substance	Receptor selectivity D2/D3 [1]	Receptor selectivity D4/D3 [1]	percent original compound remaining [2]
5-(4-(4-(4-(2-Methoxyphenyl)piperazin-1-yl)butyl)-1H-1,2,3-triazol-1-yl)quinoline [9d]	6.3	40	
1-(4-(2,3-Dichlorophenyl)piperazin-1-yl)-4-(4-(quinolin-3-yl)-1H-1,2,3-triazol-1-yl)butan-2-ol [17b]	14		26%
